Test results published in ChEMBL document CHEMBL5537197, “Discovery of Novel Coumarin-quinolinium Derivatives as Pan-KRAS Translation Inhibitors by Targeting 5'-UTR RNA G-Quadruplexes” (J Med Chem, 2024).
The source made the active and inactive calls. No cut-off for these calls is given here.

Legend:
[1] = test system: PANC-1; assay: Cytotoxicity against human PANC-1 cells harboring KRAS G12D mutant assessed as cell growth inhibition incubated for 24 hrs by MTT assay; type: functional, cell-based; conditions: PANC-1, 24 h
[2] = biological target: GTPase KRas (Homo sapiens) (UniProt P01116); assay: Inhibition of KRAS in human MIA PaCa-2 cells at 2.5 uM incubated for 24 hrs by Western blot analysis; type: cell-based
[3] = Cytotoxicity against human HFL1 cells harboring wild-type KRAS assessed as cell growth inhibition incubated for 24 hrs by MTT assay; type: toxicity, cell-based
[4] = test system: GTPase KRas (Homo sapiens), P01116 [G12C]; assay: Inhibition of KRAS G12C mutant in human MIA PaCa-2 cells incubated for 24 hrs by Western blot analysis; type: cell-based; conditions: dose <= 5.0 µM
[5] = test system: GTPase KRas (Homo sapiens), P01116 [G12C]; assay: Inhibition of KRAS G12C mutant in human MIA PaCa-2 cells at 2.5 uM by Western blot analysis; type: cell-based; conditions: time <= 48.0 hrs, TDE = time-dependent effect
[6] = test system: GTPase KRas (Homo sapiens), P01116 [G12D]; assay: Inhibition of KRAS G12D mutant in human PANC-1 cells incubated for 24 hrs by Western blot analysis; type: cell-based; conditions: dose <= 5.0 µM
[7] = test system: GTPase KRas (Homo sapiens), P01116 [G12C]; assay: Inhibition of KRAS G12C mutant in human NCI-H358 cells incubated for 24 hrs by Western blot analysis; type: cell-based; conditions: dose <= 5.0 µM
[8] = test system: MIA PaCa-2; assay: Effect on KRAS mRNA level in human MIA PaCa-2 cells harboring KRAS G12C mutant at upto 5 uM incubated upto 48 hrs by RT-qPCR analysis; type: functional, cell-based
[9] = biological target: Quadruplex DNA; assay: Binding affinity to KRAS utr-1 G-Quadruplex (unknown origin) assessed as dissociation constant by fluorescence spectroscopy; type: nucleic-acid assay
[10] = biological target: Quadruplex DNA; assay: Binding affinity to KRAS utr-z G-Quadruplex (unknown origin) assessed as dissociation constant by fluorescence spectroscopy; type: nucleic-acid assay
[11] = test system: Quadruplex RNA; assay: Binding affinity to KRAS RNA G-Quadruplex (unknown origin) assessed as melting temperature at 25 uM at 25 to 95 degreeC by CD spectroscopy (reference value: 71.4 degreeC); type: nucleic-acid assay
[12] = test system: Quadruplex DNA; assay: Binding affinity to KRAS DNA G-Quadruplex (unknown origin) assessed as melting temperature at 25 uM at 25 to 95 degreeC by CD spectroscopy (reference value: 50.1 degreeC); type: nucleic-acid assay
[13] = test system: Quadruplex DNA; assay: Binding affinity to TERRA G-Quadruplex (unknown origin) assessed as melting temperature at 25 uM at 25 to 95 degreeC by CD spectroscopy (reference value: 84.2 degreeC); type: nucleic-acid assay
[14] = test system: Quadruplex RNA; assay: Inhibition of KRAS RNA G-Quadruplex (unknown origin) translation transfected in HEK293T cells assessed as decrease in relative luciferase activity upto 5 uM incubated for 24 hrs by Dual-luciferase reporter assay; type: cell-based
[15] = biological target: GTPase KRas (Homo sapiens) (UniProt P01116); assay: Inhibition of KRAS in human MIA PaCa-2 cells assessed as decrease in total protein level at 1.25 to 5 uM incubated for 24 hrs by Western blot analysis; type: cell-based; conditions: dose 1.25-5 µM
[16] = biological target: GTPase KRas (Homo sapiens) (UniProt P01116); assay: Inhibition of KRAS in human MIA PaCa-2 cells assessed as decrease in ERK phosphorylation incubated for 24 hrs by Western blot analysis; type: cell-based; conditions: dose 1.25-5 µM
[17] = biological target: GTPase KRas (Homo sapiens) (UniProt P01116); assay: Inhibition of KRAS in human MIA PaCa-2 cells assessed as decrease in MEK phosphorylation at 2.5 uM by Western blot analysis; type: cell-based; conditions: time <= 24.0 hrs, TDE = time-dependent effect
[18] = biological target: GTPase KRas (Homo sapiens) (UniProt P01116); assay: Inhibition of KRAS in human MIA PaCa-2 cells assessed as decrease in AKT phosphorylation at 2.5 uM by Western blot analysis; type: cell-based; conditions: time <= 24.0 hrs, TDE = time-dependent effect
[19] = biological target: GTPase KRas (Homo sapiens) (UniProt P01116); assay: Inhibition of KRAS in human MIA PaCa-2 cells assessed as decrease in mTOR phosphorylation at 2.5 uM by Western blot analysis; type: cell-based; conditions: time <= 24.0 hrs, TDE = time-dependent effect
[20] = test system: MIA PaCa-2; assay: Induction of cell cycle arrest at G2/M phase in human MIA PaCa-2 cells incubated for 24 hrs by PI staining based HCS analysis; type: functional; conditions: dose 1.25-5 µM
[21] = test system: MIA PaCa-2; assay: Induction of apoptosis in human MIA PaCa-2 cells assessed as increase in caspase-3 cleavage by Western blot analysis; type: functional, cell-based; conditions: dose 1.25-5 µM
[22] = test system: MIA PaCa-2; assay: Antitumor activity against human MIA PaCa-2 cells xenografted in BALB/C-nu/nu mouse model assessed as tumor growth inhibition at 2.5 mg/kg,ip everyday for 18 days relative to control; type: functional; conditions: MIA PaCa-2, 432 h, time 18 day, read-out: TGI
[23] = test system: MIA PaCa-2; assay: Antitumor activity against human MIA PaCa-2 cells xenografted in BALB/C-nu/nu mouse model assessed as tumor growth inhibition at 5 mg/kg,ip everyday for 18 days relative to control; type: functional; conditions: MIA PaCa-2, 432 h, time 18 day, read-out: TGI
[24] = Toxicity in BALB/C-nu/nu mouse model xenografted with human MIA PaCa-2 cells assessed as drug tolerance at 2.5 to 5 mg/kg,ip everyday for 18 days; type: organism-based; conditions: in vivo, 432 h, dose 2.5-5 mg/kg, time 18 day

GTPase KRas (Homo sapiens), P01116 [G12C], sequence (P01116 whole entry G12C): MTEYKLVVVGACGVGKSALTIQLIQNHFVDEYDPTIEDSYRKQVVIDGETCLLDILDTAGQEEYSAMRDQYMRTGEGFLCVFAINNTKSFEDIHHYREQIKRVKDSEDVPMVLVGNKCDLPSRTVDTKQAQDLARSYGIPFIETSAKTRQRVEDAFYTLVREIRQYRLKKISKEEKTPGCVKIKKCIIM
GTPase KRas (Homo sapiens), sequence (P01116 whole entry, looked up): as the sequence (P01116 whole entry G12C) above, with C12G counted along it
GTPase KRas (Homo sapiens), P01116 [G12D], sequence (P01116 whole entry G12D, looked up): as the sequence (P01116 whole entry G12C) above, with C12D counted along it

inhibition [2]: Active
inhibition [4]: Dose-Dependent Effect
inhibition [5]: Tde
inhibition [6]: Dose-Dependent Effect
inhibition [7]: Dose-Dependent Effect
Kd [9]: 900 nM
Kd [10]: 2300 nM
Tm [11]: 51.3 °C
Tm [12]: 52 °C
Tm [13]: 81.2 °C
inhibition [15]: Active
inhibition [16]: Dose-Dependent Effect
inhibition [17]: Tde
inhibition [18]: Tde
inhibition [19]: Tde
Structure (SMILES): CCN(CC)c1ccc2cc(/C=C/c3ccc4cc(F)c(NCCN5CCCC5)cc4[n+]3C)c(=O)oc2c1.[I-]
IC50 [1]: 5.6 µM
IC50 at 24 h [3]: > 40 µM
Activity [8]: inactive
inhibition [14]: Active
Activity [20]: Dose-Dependent Effect
Activity [21]: Dose-Dependent Effect
inhibition in vivo at 2.5 mg/kg [22]: 62%
inhibition in vivo at 5 mg/kg [23]: 70.3%
Activity [24]: Non-Toxic
